From article PMC11823630, “In vitro potentiation of tetracyclines in Pseudomonas aeruginosa by RW01, a new cyclic peptide” (Antimicrobial Agents and Chemotherapy, 2024)
≈ marks a conversion by molar mass, not a printed value.

Key:
[1] = tested on: PAO1 mutant MIN8_4, pilZ(nt18InsT); experiment: MIC, E-test on MHA; assay type: cell-based; settings: Pseudomonas aeruginosa, PAO1, read-out: MIC, E-test
[2] = tested on: PAO1 mutant MIN1_RW01_1, pmrB(Y98N); experiment: MIC, E-test on MHA; assay type: cell-based; settings: Pseudomonas aeruginosa, PAO1, read-out: MIC, E-test
[3] = tested on: PAO1 mutant MIN8_3, pilZ(nt18InsT); experiment: MIC, E-test on MHA; assay type: cell-based; settings: Pseudomonas aeruginosa, PAO1, read-out: MIC, E-test
[4] = tested on: PAO1 mutant MIN2_RW01_1, pmrB(V215L); experiment: MIC, E-test on MHA; assay type: cell-based; settings: Pseudomonas aeruginosa, PAO1, read-out: MIC, E-test
[5] = tested on: PAO1 mutant MIN4_RW01_4, pmrB(Y98N); experiment: MIC, E-test on MHA; assay type: cell-based; settings: Pseudomonas aeruginosa, PAO1, read-out: MIC, E-test
[6] = tested on: PAO1 mutant MIN2_RW01_3, parS(V152A); experiment: MIC, E-test on MHA; assay type: cell-based; settings: Pseudomonas aeruginosa, PAO1, read-out: MIC, E-test
[7] = tested on: PAO1 mutant MIN2_RW01_2, pmrB(M292T); experiment: MIC, E-test on MHA; assay type: cell-based; settings: Pseudomonas aeruginosa, PAO1, read-out: MIC, E-test
[8] = tested on: PAO1 mutant MIN16_2, nalC(aa9∆4), pilQ(nt46∆1); experiment: MIC, E-test on MHA; assay type: cell-based; settings: Pseudomonas aeruginosa, PAO1, read-out: MIC, E-test
P. aeruginosa PAO1, WT [9] = experiment: MIC, E-test on MHA; assay type: cell-based; settings: Pseudomonas aeruginosa, PAO1, read-out: MIC, E-test
[10] = tested on: PAO1 mutant MIN16_4, nalC(T50P), pilM(Q62X); experiment: MIC, E-test on MHA; assay type: cell-based; settings: Pseudomonas aeruginosa, PAO1, read-out: MIC, E-test
[11] = tested on: PAO1 mutant MIN32_1, mexR(R63H), pilB(N349K), PA0646(V316G); experiment: MIC, E-test on MHA; assay type: cell-based; settings: Pseudomonas aeruginosa, PAO1, read-out: MIC, E-test
[12] = tested on: PAO1 mutant MIN4_RW01_1, pmrB(R429H); experiment: MIC, E-test on MHA; assay type: cell-based; settings: Pseudomonas aeruginosa, PAO1, read-out: MIC, E-test
[13] = tested on: PAO1 mutant MIN4_RW01_3, pmrB(M292T); experiment: MIC, E-test on MHA; assay type: cell-based; settings: Pseudomonas aeruginosa, PAO1, read-out: MIC, E-test
P. aeruginosa PAO1 [14] = experiment: MIC in the presence of 25% mouse serum; settings: for MIC: Pseudomonas aeruginosa
[15] = tested on: PAO1 mutant MIN8_1, nalD(R3C), pilM(Q62X); experiment: MIC, E-test on MHA; assay type: cell-based; settings: Pseudomonas aeruginosa, PAO1, read-out: MIC, E-test
[16] = tested on: PAO1 mutant MIN8_2, pilZ(nt18InsT); experiment: MIC, E-test on MHA; assay type: cell-based; settings: Pseudomonas aeruginosa, PAO1, read-out: MIC, E-test
P. aeruginosa PAO1, WT [17] = experiment: MIC, MHB microdilution
[18] = tested on: PAO1 mutant MIN8_1, nalD(R3C), pilM(Q62X); experiment: MIC, MHB microdilution; settings: Pseudomonas aeruginosa, PAO1, read-out: MIC, MHB microdilution
P. aeruginosa PAO1 [19] = experiment: One-step mutant generation and resistant population analysis on MHA; assay type: cell-based, Pseudomonas aeruginosa
Experimental: Selection of resistant mutants was performed for minocycline with and without RW01 in three independent replicates for wild-type P. aeruginosa reference strain PAO1. Tubes containing Mueller-Hinton broth (MHB) were inoculated and incubated for 24 h at 37°C. Afterward, 1/100 dilution of each tube was incubated at 37°C in MHB to late-exponential growth phase, measured by spectrophotometry at OD600. […] A control plate without antibiotic was included as inoculum control. After overnight incubation, colony counting of each treatment was performed to analyze the generation of resistant population. The mutant prevention concentration (MPC) was defined as the lowest concentration of antibiotic yielding no growth of resistant mutants. Selected mutants were checked for susceptibility profiles by using a Sensititre custom plate (Thermo Fisher Scientific, Massachusetts, USA) for Gram-negative bacteria, following the manufacturer’s instructions.

[20] = tested on: PAO1 mutant MIN16_1, nalD(T43P); experiment: MIC, MHB microdilution; settings: Pseudomonas aeruginosa, PAO1, read-out: MIC, MHB microdilution
[21] = tested on: PAO1 mutant MIN16_4, nalC(T50P), pilM(Q62X); experiment: MIC, MHB microdilution; settings: Pseudomonas aeruginosa, PAO1, read-out: MIC, MHB microdilution
[22] = tested on: PAO1 mutant MIN4_RW01_3, pmrB(M292T); experiment: MIC, MHB microdilution; settings: Pseudomonas aeruginosa, PAO1, read-out: MIC, MHB microdilution
[23] = tested on: PAO1 mutant MIN1_RW01_1, pmrB(Y98N); experiment: MIC, MHB microdilution; settings: Pseudomonas aeruginosa, PAO1, read-out: MIC, MHB microdilution
[24] = tested on: PAO1 mutant MIN16_2, nalC(aa9∆4), pilQ(nt46∆1); experiment: MIC, MHB microdilution; settings: Pseudomonas aeruginosa, PAO1, read-out: MIC, MHB microdilution
[25] = tested on: PAO1 mutant MIN16_3, nfxB(nt79∆14), pilB(N349K); experiment: MIC, MHB microdilution; settings: Pseudomonas aeruginosa, PAO1, read-out: MIC, MHB microdilution
[26] = tested on: PAO1 mutant MIN2_RW01_2, pmrB(M292T); experiment: MIC, MHB microdilution; settings: Pseudomonas aeruginosa, PAO1, read-out: MIC, MHB microdilution
[27] = tested on: PAO1 mutant MIN1_RW01_3, pmrB(V215L); experiment: MIC, MHB microdilution; settings: Pseudomonas aeruginosa, PAO1, read-out: MIC, MHB microdilution
[28] = tested on: PAO1 mutant MIN8_3, pilZ(nt18InsT); experiment: MIC, MHB microdilution; settings: Pseudomonas aeruginosa, PAO1, read-out: MIC, MHB microdilution
[29] = tested on: PAO1 mutant MIN2_RW01_3, parS(V152A); experiment: MIC, MHB microdilution; settings: Pseudomonas aeruginosa, PAO1, read-out: MIC, MHB microdilution
[30] = tested on: PAO1 mutant MIN8_2, pilZ(nt18InsT); experiment: MIC, MHB microdilution; settings: Pseudomonas aeruginosa, PAO1, read-out: MIC, MHB microdilution
[31] = tested on: PAO1 mutant MIN8_4, pilZ(nt18InsT); experiment: MIC, MHB microdilution; settings: Pseudomonas aeruginosa, PAO1, read-out: MIC, MHB microdilution
10 P. aeruginosa strains = experiment: MIC with and without RW01, summary over the strain collection; assay type: cell-based, Pseudomonas aeruginosa; settings: RW01 100 mg/L; all strains tested
Experimental: MIC for RW01 was also tested.

SMILES	MIC [1] [µg/mL]	MIC [2] [µg/mL]	MIC [3] [µg/mL]	MIC [4] [µg/mL]	MIC [5] [µg/mL]	MIC [6] [µg/mL]	MIC [7] [µg/mL]	MIC [8] [µg/mL]	MIC (P. aeruginosa PAO1, WT [9]) [µg/mL]	MIC [10] [µg/mL]	MIC [11] [µg/mL]	MIC [12] [µg/mL]	MIC [13] [µg/mL]	MIC [15] [µg/mL]	MIC [16] [µg/mL]	further results
C[C@H]1c2cccc(O)c2C(=O)C2=C(O)[C@]3(O)C(=O)C(C(N)=O)=C(O)[C@@H](N(C)C)[C@@H]3[C@@H](O)[C@@H]21 [Doxycycline, doxycycline]	256 (≈ 576 µM)	96 (≈ 216 µM)	128 (≈ 288 µM)	96 (≈ 216 µM)	64 (≈ 144 µM)	256 (≈ 576 µM)	128 (≈ 288 µM)	128 (≈ 288 µM)	32 (≈ 72 µM)	128 (≈ 288 µM)	256 (≈ 576 µM)	256 (≈ 576 µM)	128 (≈ 288 µM)	256 (≈ 576 µM)	256 (≈ 576 µM)	MIC in the presence of serum (P. aeruginosa PAO1 [14]; PAO1, antibiotic alone, 25% non-inactivated C57BL/6RJ mouse serum): unchanged; MIC + RW01 in the presence of serum (P. aeruginosa PAO1 [14]; PAO1, antibiotic with RW01 100 mg/L, 25% non-inactivated C57BL/6RJ mouse serum): unchanged
CN(C)c1ccc(O)c2c1C[C@H]1C[C@H]3[C@H](N(C)C)C(O)=C(C(N)=O)C(=O)[C@@]3(O)C(O)=C1C2=O [Minocycline, minocycline]																MIC of MIN + RW01, MHB microdilution (P. aeruginosa PAO1, WT [17]; PAO1 WT, minocycline MIC in combination with RW01, listed as MIN): 0.5 to 1 µg/mL; MIC (P. aeruginosa PAO1, WT [17]; Pseudomonas aeruginosa, PAO1, read-out: MIC, MHB microdilution): 4 to 8 µg/mL (≈ 8.74 to 17.5 µM); MIC [18]: 16 µg/mL (≈ 35 µM); mutant prevention concentration (MPC) (P. aeruginosa PAO1 [19]; PAO1, minocycline alone, three independent replicates): 32 to 64 mg/L; mutant prevention concentration (MPC) with RW01 (P. aeruginosa PAO1 [19]; PAO1, minocycline co-administered with RW01 100 mg/L): 8 mg/L; MIC (P. aeruginosa PAO1 [19]; Pseudomonas aeruginosa, PAO1, read-out: MIC (population studies)): 4 to 8 µg/mL (≈ 8.74 to 17.5 µM); MIC [20]: 16 µg/mL (≈ 35 µM); MIC [21]: 16 µg/mL (≈ 35 µM); MIC [22]: 64 µg/mL (≈ 140 µM); MIC [23]: 16 µg/mL (≈ 35 µM); MIC [24]: 16 µg/mL (≈ 35 µM); MIC [25]: 16 to 32 µg/mL (≈ 35 to 69.9 µM); MIC [26]: 16 to 32 µg/mL (≈ 35 to 69.9 µM); MIC [27]: 16 µg/mL (≈ 35 µM); MIC (P. aeruginosa PAO1 [14]; PAO1, read-out: MIC + RW01 in the presence of serum): 4 µg/mL; MIC (P. aeruginosa PAO1 [14]; PAO1, read-out: MIC in the presence of serum): 32 µg/mL; MIC [28]: 16 µg/mL (≈ 35 µM); MIC [29]: 16 µg/mL (≈ 35 µM); MIC [30]: 16 µg/mL (≈ 35 µM); MIC [31]: 16 µg/mL (≈ 35 µM)
CN(C)c1cc(NC(=O)CNC(C)(C)C)c(O)c2c1C[C@H]1C[C@H]3[C@H](N(C)C)C(O)=C(C(N)=O)C(=O)[C@@]3(O)C(O)=C1C2=O [Tigecycline, tigecycline]	32 (≈ 54.6 µM)	24 (≈ 41 µM)	16 (≈ 27.3 µM)	24 (≈ 41 µM)	32 (≈ 54.6 µM)	48 (≈ 82 µM)	16 (≈ 27.3 µM)	32 (≈ 54.6 µM)	6 to 8 (≈ 10.2 to 13.7 µM)	16 (≈ 27.3 µM)	24 (≈ 41 µM)	16 (≈ 27.3 µM)	32 (≈ 54.6 µM)	32 (≈ 54.6 µM)	32 (≈ 54.6 µM)	MIC reduction on combination with RW01 over the strains (10 P. aeruginosa strains): four- to eightfold
